Test results taken from patent publication US10028971B2, “Compositions and methods for treating psychiatric disorders” (GOSFORTH CENTRE (HOLDINGS) PTY LTD., priority 2008, dated 2018).
Like-named read-outs stand apart in the source and are kept apart here.

What was measured:
[1] = tested on: individuals with developmental dyspraxia / poor coordination; experiment: Treatment of developmental dyspraxia, clinical observation; type: in vivo, human; conditions: person, autism, developmental dyspraxia, ADHD; methylphenidate max 95 mg daily
Description: Many of the individuals treated at this clinic, with a diagnosis of ADHD and/or pervasive development disorder such Asperger's Syndrome or autism also present with symptoms consistent with a diagnosis of a developmental coordination disorder. They are often described as ‘unco’ (unco-ordinated) by their peers and experience victimization, poor self-esteem and frustration as a consequence of their poor coordination. […] Individuals have described a sense of having more time to coordinate movements and to understand and integrate their own activity appropriately within a team sport such as soccer, which has previously eluded them. Individuals have felt frustration at being able to practise repeatedly an activity or skill only to be unable to put it into practice when required, within the play of a match. It is proposed that individuals were previously unable to process and plan their own coordination but remain aware of the general activity in which they were participating.

adults with ADHD = conditions: ADHD
Description: In the clinical setting a number of adults with ADHD experienced a combination therapy of stimulant medication (dexamphetamine) in combination with sodium valproate (VPA). The initial dosages used were from 15 to 70 mg/day of dexamphetamine and from 100 to 700 mg/day of VPA (Epilim) (=approximately 2 to 10 mg/kg/day).
The determination of the dose for the dexamphetamine was undertaken in a clinical sensitive open label manner. The dose was titrated upwards dependent on the clinical response and the freedom from side-effects. The dose range was between 15 and 70 mg a day. The frequency of the dosing also varied dependent upon the clinical response. The usual dose interval was between two to four hours. This dosing adjustment took place prior to the commencement of the sodium valproate. The sodium valproate medication was initiated once a day at 50 mg tablet or elixir and titrated upwards dependent on response, but not more than one increase every three days. The dose was given as a once or twice a day regime. During the titration phase, if clinically possible, no other adjustments to the pharmacotherapy were undertaken.

[2] = tested on: patients with an eating disorder and ADHD; experiment: Treatment of eating disorders, clinical observation; conditions: person, anorexia nervosa, ADHD; methylphenidate, 45 mg extended release
Description: The use of sodium valproate at low dose levels can then be titrated to a level that does effectively control these thoughts. This may or may not be at the therapeutic dose used in the treatment of bipolar disorder.

[3] = tested on: patients with an eating disorder and ADHD; conditions: double-blind studies; effects thought only short-lived; cited from earlier work
[4] = in vivo; cited from earlier work

SMILES: COC(=O)C(c1ccccc1)C1CCCCN1 (centres unmarked) [methylphenidate]
- clinical outcome (case) [1]: Limited improvement with poor compliance
- clinical outcome (case) (adults with ADHD; adult female, anorexia nervosa bulimic subtype, methylphenidate alone): reasonable improvement
- clinical outcome (case) (adults with ADHD; person 120 kg, methylphenidate 120 mg per day alone): Remain disorganized and inconsistent with taking medication
- clinical outcome (case) (adults with ADHD; person, methylphenidate 55 mg): improvement in their symptoms of impaired attention and concentration
- clinical outcome (case) (adults with ADHD; person, anorexia nervosa, methylphenidate alone): inconsistent
- clinical outcome (case) [2]: inconsistent
- effect on bulimic symptoms [3]: suppression of bulimic symptoms
- duration of action [4]: 2 to 4 h
